The values below are quoted from earlier work in article PMC12181400, “Leveraging viral genome sequences and machine learning models for identification of potentially selective antiviral agents” (Communications Chemistry, 2025).

One data set relates to MT-4 cells. Further details: method as in pmid 19265512. As to conditions: MT-4 cells in the presence of 20% NHS; ref pmid 19265512; read-out: antiviral EC90; cited from earlier work.
A further data set has as its system IN. Details: method as in pmid 19265512. As to conditions: in vitro strand transfer assay; ref pmid 19265512; read-out: IC50, inhibition of IN; cited from earlier work.
Data set [1] concerns hepatitis B surface antigen (HBsAg) secretion. Further details: method as in PMID 17723297. The conditions noted are these: Hep G2.2.15 cell line; read-out: IC50, inhibition of HBsAg secretion; cited from earlier work.
Data set [2] concerns wild-type (WT) and drug-resistant HIV-1 isolates. Further details: method as in pmid 18043758. The conditions noted are these: multiple wild-type and drug-resistant HIV-1 isolates; ref pmid 18043758; cited from earlier work.

Regarding `Cn1c(=O)c(C(=O)NCCO)c(O)c2ncc(Cc3ccc(F)cc3)cc21` [GSK-364735], the EC90 in the data set on MT-4 cells was 0.04 µM. Moreover, the 50% inhibitory concentration (IC50) in the data set on IN was 0.008 µM.
Take `COc1cc2c3c(c1O)C1(C=CC(=O)C=C1)CC3N(C)CC2` (stereo not shown) [glaziovine]: the IC50 in data set [1] was 8 µM.
`C=C(C)[C@@H]1CC[C@]2(C(=O)O)CC[C@]3(C)[C@H](CC[C@@H]4[C@@]5(C)CC[C@H](OC(=O)CC(C)(C)C(=O)O)C(C)(C)[C@@H]5CC[C@]43C)[C@@H]12` [bevirimat, 3-O-(3',3'-dimethylsuccinyl) betulinic acid]: in data set [2], the “in vitro antiviral activity” value is 10 nM.

What is called EC90 is the point of the concentration-response curve where the effect stands at 90%. One may read the IC50 as the concentration needed to halve the response being measured.
